Reference: publication PMC9843824 (Neuropharmacology, 2022)
Values joined by “and” are separate entries in the source; they are usually repeats but may differ in a detail not shown here. Identical values can stand only once. Like-named read-outs stand apart in the source and are kept apart here.

Key:
[1] = system: neural activity regulated, high affinity MeAIB/Gln transport in mature rat hippocampal neurons; type: cell-based; details: for Mode of inhibition of Ca2+-regulated MeAIB transport: Michaelis-Menten kinetic analysis; for Reduction of initial velocity (V, Vmax) of MeAIB transport / Vmax of Ca2+-regulated MeAIB transport in presence of inhibitor: inhibitor 1 μM; for Vmax of Ca2+-regulated MeAIB transport in presence of inhibitor: control 107 ± 9; for IC50: read-out: IC50, inhibition of Ca2+-regulated (spontaneous, activity regulated) MeAIB transport, hippocampal neurons DIV 19–21, 2 min preincubation, 37 °C; for Block of activity regulated MeAIB transport, screen 2 / Result of screen 2 (block of MeAIB transport): compound 10 μM, 14C-MeAIB 5.4 μM
[2] = biological target: NaV1.2 (Mus musculus, UniProt B1AWN6); type: cell-based
[3] = biological target: NaV1.6 (Homo sapiens, UniProt Q9UQD0); assay: Whole-cell patch-clamp, HEK cells transiently transfected with NaV1.6; type: cell-based; details: IC50 NaV1.6, holding potential −80 mV, inter-pulse interval 10 s (0.1 Hz)
[4] = system: KA rat model of TLE; details: for Neuroprotection, FJB staining in hippocampus at 3 d: 10 mg/kg i.p. 1 h and 4 h after SE
[5] = physchem; type: physicochemical
[6] = in vitro; type: in vitro ADME; details: rat, plasma
[7] = type: in vivo; details: rat; for Oral availability / bioavailability: gavage vs i.p.
[8] = system: Ca2+-activated K+ channels; details: ref Sankaranarayanan et al., 2009; cited from earlier work
[9] = system: Ca2+-independent (low affinity) MeAIB transport in mature rat hippocampal neurons; type: cell-based; details: at 15 min of uptake
[10] = 30 mg/kg i.p. 1 h and 4 h after SE, then once/day for 2 d

Sequence of NaV1.6 (Q9UQD0 whole entry): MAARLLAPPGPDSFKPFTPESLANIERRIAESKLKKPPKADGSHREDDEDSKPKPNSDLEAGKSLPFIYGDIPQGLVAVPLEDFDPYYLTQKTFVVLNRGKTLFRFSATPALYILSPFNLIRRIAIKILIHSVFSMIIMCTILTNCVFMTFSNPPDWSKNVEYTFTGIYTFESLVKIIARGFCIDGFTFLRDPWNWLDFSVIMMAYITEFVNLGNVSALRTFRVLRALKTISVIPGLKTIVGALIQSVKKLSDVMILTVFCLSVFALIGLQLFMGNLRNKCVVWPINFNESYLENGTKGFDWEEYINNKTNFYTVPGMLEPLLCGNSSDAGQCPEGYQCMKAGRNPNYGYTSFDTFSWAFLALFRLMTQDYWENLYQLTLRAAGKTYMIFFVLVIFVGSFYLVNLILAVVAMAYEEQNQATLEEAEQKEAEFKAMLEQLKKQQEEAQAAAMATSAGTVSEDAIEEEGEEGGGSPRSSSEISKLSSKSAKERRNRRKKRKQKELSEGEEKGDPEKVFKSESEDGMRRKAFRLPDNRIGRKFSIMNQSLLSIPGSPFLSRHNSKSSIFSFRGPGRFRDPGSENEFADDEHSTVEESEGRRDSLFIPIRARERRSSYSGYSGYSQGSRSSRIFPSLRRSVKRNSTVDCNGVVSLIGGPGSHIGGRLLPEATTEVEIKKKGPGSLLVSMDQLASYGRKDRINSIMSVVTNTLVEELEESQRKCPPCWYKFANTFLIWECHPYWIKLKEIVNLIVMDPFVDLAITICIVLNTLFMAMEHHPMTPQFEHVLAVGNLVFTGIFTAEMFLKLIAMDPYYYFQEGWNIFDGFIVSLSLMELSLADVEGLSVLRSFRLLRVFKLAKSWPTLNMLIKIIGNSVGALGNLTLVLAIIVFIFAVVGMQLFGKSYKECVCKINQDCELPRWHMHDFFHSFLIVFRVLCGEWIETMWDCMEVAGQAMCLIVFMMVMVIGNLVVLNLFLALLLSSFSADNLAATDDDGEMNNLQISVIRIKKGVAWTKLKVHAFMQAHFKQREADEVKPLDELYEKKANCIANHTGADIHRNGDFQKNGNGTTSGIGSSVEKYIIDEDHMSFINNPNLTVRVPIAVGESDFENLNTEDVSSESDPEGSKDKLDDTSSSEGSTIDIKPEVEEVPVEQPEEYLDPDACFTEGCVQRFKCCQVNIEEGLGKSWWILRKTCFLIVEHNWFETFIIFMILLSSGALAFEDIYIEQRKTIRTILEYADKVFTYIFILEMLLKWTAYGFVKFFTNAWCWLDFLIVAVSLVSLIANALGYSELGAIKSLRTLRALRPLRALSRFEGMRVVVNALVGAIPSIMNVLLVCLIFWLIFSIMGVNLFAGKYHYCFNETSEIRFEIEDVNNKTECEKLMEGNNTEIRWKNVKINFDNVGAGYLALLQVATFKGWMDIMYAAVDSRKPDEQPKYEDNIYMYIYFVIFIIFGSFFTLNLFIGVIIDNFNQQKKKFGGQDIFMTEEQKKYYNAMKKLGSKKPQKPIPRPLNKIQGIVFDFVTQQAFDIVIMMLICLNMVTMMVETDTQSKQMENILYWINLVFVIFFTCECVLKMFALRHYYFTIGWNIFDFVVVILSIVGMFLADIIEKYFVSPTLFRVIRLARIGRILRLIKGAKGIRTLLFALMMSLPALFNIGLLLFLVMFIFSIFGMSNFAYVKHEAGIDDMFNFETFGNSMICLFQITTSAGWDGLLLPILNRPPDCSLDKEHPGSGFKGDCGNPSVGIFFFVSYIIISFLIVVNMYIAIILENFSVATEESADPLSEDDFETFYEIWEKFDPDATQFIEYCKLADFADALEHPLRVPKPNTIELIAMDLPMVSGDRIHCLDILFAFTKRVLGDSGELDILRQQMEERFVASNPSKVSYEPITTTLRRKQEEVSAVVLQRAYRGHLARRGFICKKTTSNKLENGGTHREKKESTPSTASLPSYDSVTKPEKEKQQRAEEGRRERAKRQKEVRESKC
Sequence of NaV1.2 (B1AWN6 whole entry): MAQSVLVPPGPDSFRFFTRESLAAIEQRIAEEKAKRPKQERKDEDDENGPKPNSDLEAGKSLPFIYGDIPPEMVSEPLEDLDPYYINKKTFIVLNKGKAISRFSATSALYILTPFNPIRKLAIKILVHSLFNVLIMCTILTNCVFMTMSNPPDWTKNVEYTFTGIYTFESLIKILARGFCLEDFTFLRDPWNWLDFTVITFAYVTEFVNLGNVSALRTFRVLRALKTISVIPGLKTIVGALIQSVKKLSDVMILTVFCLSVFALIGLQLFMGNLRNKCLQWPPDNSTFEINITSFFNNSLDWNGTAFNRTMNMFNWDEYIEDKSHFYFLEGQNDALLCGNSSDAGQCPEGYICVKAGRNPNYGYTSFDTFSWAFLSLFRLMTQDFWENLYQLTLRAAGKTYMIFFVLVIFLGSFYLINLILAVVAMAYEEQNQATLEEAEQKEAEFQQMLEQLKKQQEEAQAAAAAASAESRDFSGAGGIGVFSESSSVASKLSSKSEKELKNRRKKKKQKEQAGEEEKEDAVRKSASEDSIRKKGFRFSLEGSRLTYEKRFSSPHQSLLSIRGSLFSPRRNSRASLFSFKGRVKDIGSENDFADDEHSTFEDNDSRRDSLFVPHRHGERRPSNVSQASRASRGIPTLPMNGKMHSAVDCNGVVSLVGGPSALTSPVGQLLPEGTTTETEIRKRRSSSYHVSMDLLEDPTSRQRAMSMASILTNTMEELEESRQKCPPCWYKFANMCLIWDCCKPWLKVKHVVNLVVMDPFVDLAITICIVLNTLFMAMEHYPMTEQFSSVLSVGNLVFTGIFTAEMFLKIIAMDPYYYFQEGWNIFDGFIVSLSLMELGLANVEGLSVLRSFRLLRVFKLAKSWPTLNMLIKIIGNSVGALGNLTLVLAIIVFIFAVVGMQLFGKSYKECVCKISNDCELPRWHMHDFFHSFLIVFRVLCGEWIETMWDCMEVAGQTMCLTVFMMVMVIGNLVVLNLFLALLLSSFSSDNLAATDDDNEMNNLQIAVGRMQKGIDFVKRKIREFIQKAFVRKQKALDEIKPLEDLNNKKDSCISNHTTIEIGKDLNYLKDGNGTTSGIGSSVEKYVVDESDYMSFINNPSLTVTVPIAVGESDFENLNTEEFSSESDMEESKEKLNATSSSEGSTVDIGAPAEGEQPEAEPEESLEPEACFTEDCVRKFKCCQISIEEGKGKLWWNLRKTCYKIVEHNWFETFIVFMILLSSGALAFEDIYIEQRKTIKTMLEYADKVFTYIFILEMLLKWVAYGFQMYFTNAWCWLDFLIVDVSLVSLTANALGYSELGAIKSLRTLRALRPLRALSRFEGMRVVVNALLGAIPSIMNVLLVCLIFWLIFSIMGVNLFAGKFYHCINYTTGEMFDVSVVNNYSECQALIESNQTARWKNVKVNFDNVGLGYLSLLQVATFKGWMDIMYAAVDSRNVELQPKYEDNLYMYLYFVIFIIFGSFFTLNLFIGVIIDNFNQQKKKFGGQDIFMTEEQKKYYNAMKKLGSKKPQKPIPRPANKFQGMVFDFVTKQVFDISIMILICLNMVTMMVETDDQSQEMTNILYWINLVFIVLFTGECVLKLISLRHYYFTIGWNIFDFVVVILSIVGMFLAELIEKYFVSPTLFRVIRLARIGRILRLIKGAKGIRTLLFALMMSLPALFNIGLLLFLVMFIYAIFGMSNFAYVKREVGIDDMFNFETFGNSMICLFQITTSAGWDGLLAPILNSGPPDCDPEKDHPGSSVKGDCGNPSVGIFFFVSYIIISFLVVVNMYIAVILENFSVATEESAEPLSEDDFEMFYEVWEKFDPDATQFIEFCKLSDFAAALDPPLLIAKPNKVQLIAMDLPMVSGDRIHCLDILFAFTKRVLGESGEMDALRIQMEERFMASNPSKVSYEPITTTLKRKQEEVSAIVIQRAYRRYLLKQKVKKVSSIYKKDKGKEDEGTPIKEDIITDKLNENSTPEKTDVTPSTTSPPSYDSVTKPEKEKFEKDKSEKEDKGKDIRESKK

## Nc1nc2ccc(OC(F)(F)F)cc2s1 [Riluzole, reference compound]
[1]
  Mode of inhibition of Ca2+-regulated MeAIB transport: noncompetitive
  Reduction of initial velocity (V, Vmax) of MeAIB transport: ~ 50%
  Vmax of Ca2+-regulated MeAIB transport in presence of inhibitor: 54 ± 1 pmol/min
[1]; 15 min uptake
  IC50: 0.86 ± 0.02 µM
[1]; riluzole 10 μM, 23.4 μM 14C-MeAIB, total without inhibitor 619±21
  Spontaneous MeAIB transport after 15 min in presence of inhibitor: 133 ± 8 pmol/well
[2]
  Frequency dependence of NaV1.2 block: not frequency dependent
[3]
  IC50: 115 ± 2 µM
[4]; then once/day for 2 d
  Neuroprotection, FJB staining in hippocampus at 3 d: prevents acute neural injury altogether
[4]; 10 mg/kg post-SE
  Behaviour of rats after treatment: relatively immobile/sedated
[4]; 10 mg/kg post-SE, untreated 4–6 h
  Duration of KA-induced SE events: less than 2 h
[4]; e.g., 30 mg/kg
  Behaviour of rats at higher doses: render rats immobile and unresponsive
[4]; post-treated
  Neural injury in hippocampal limbic areas: largely prevented neural injury

## Nc1nc(-c2ccc3ccccc3c2)c(Cl)s1 [SKA-379, 5-Chloro-4-(naphthalen-2-yl)thiazol-2-amine]
[1]; 15 min uptake
  IC50: 6.5 ± 0.25 µM
[5]
  logP: 4.42
[4]; then once/day for 2 d
  Neuroprotection, FJB staining in hippocampus at 3 d: neuro-protective, but not as protective as riluzole
[4]; [10]
  Hippocampal neural injury by FJB staining and NeuN fluorescence at 3 d: neuroprotective

## Nc1nc(-c2cccc3ccccc23)c(Br)s1 [SKA-219, 5-Bromo-4-(naphthalen-1-yl)thiazol-2-amine]
[1]
  Block of activity regulated MeAIB transport, screen 2: > 95%
[5]
  logP: 4.76
[6]
  fraction unbound: 0.005

## Nc1nc(-c2ccc(OC(F)(F)F)cc2)cs1 [SKA-41, 4-(4-(Trifluoromethoxy)phenyl)thiazol-2-amine]
[5]
  logP: 4.58
[6]
  fraction unbound: 0.043
[7]
  Brain penetration: excellent
  Oral availability / bioavailability: excellent
[4]; then once/day for 2 d
  Neuroprotection, FJB staining in hippocampus at 3 d: neuro-protective, but not as protective as riluzole
[8]
  Activity on Ca2+-activated K+ channels: inactive

## Cc1ccc(-c2nc(N)sc2Br)c2ccccc12 [SKA-375, 5-Bromo-4-(4-methylnaphthalen-1-yl)thiazol-2-amine]
[5]
  logP: 5.25

## Nc1nc(-c2cccc3ccccc23)c(Cl)s1 [SKA-378, 5-Chloro-4-(naphthalen-1-yl)thiazol-2-amine]
[1]
  Mode of inhibition of Ca2+-regulated MeAIB transport: noncompetitive
  Reduction of initial velocity (V, Vmax) of MeAIB transport: ~ 50%
  Vmax of Ca2+-regulated MeAIB transport in presence of inhibitor: 73 ± 6 pmol/min
[1]; 15 min uptake
  IC50: 1.1 ± 0.17 µM
[3]
  IC50: 28 µM and ~28 µM
[5]
  logP: 4.2
[6]
  fraction unbound: 0.008
[7]
  Brain penetration: excellent
[4]; then once/day for 2 d
  Neuroprotection, FJB staining in hippocampus at 3 d: neuro-protective, but not as protective as riluzole
[4]; [10]
  FJB staining in hippocampal CA1-4 neurons at 3 d: minimal
  NeuN fluorescence in pyramidal neuron subfields at 3 d: largely prevents the diminished NeuN fluorescence
[4]; 30 mg/kg i.p. given before KA (pretreatment)
  Rats still exhibiting maximal stage 5 seizures (Racine scale): > 50%
[4]; 30 mg/kg i.p. pretreatment
  FJB staining, hippocampal CA pyramidal neuron layers at 3 d: blocks neuronal hippocampal injury
  NeuN fluorescent intensity in CA4, CA3, CA1 at 3 d: nearly identical to sham levels
  Seizure severity vs non-treated KA-injected rats: did not show a significant reduction in seizure severity
[4]; 30 mg/kg post-SE
  Duration of KA-induced SE events: not affected

## Nc1nc(-c2ccc3ccccc3c2)c(F)s1 [SKA-382, 5-Fluoro-4-(naphthalen-2-yl)thiazol-2-amine]
[5]
  logP: 4.14

## Nc1nc(-c2ccc(OC(F)(F)F)cc2)c(Cl)s1 [SKA-376, 5-Chloro-4-(4-(trifluoromethoxy)phenyl)thiazol-2-amine]
[1]; 15 min uptake
  IC50: 4.3 ± 0.4 µM
[5]
  logP: 4.53
[6]
  fraction unbound: 0.015
[4]; [10]
  Hippocampal neural injury by FJB staining and NeuN fluorescence at 3 d: did not significantly reduce neural injury

## Cc1ccc(-c2csc(N)n2)c2ccccc12 [SKA-190, 4-(4-Methylnaphthalen-1-yl)thiazol-2-amine]
[1]
  Result of screen 2 (block of MeAIB transport): active
[5]
  logP: 4.53

## CNC(C)(C)C(=O)O [MeAIB, methylaminoisobutryic acid, reference compound]
[1]; at 15 min of uptake
  Vmax of Ca2+-dependent MeAIB transport: 1605 ± 139 pmol/well
[1]; read-out: Km for spontaneous Ca2+-dependent MeAIB transport, Michaelis-Menten analysis, 15 min uptake
  Km: 61 ± 5 µM
[9]
  Vmax of Ca2+-independent MeAIB transport: 1793 ± 131 pmol/well

## COc1ccc(CCN(C)CCCC(C#N)(c2ccc(OC)c(OC)c2)C(C)C)cc1OC (stereo not drawn) [verapamil, reference compound]
[1]
  Spontaneous MeAIB transport after 15 min in presence of inhibitor: 119 ± 9 pmol/well

## Nc1nc(-c2ccc3ccccc3c2)cs1 [SKA-76, 4-(Naphthalen-2-yl)thiazol-2-amine]
[1]
  Block of activity regulated MeAIB transport, screen 2: ~ 50%
[1]; 15 min uptake
  IC50: 6.2 ± 0.9 µM
[5]
  logP: 4.05

## Cc1ccc(-c2nc(N)sc2Cl)c2ccccc12 [SKA-377, 5-Chloro-4-(4-methylnaphthalen-1-yl)thiazol-2-amine]
[5]
  logP: 4.91
[6]
  fraction unbound: 0.01
[7]
  Oral availability / bioavailability: excellent oral availability
[4]; then once/day for 2 d
  Neuroprotection, FJB staining in hippocampus at 3 d: neuro-protective, but not as protective as riluzole
[4]; [10]
  Hippocampal neural injury by FJB staining and NeuN fluorescence at 3 d: neuroprotective

## Nc1nc(-c2cccc3ccccc23)cs1 [SKA-75, 4-(Naphthalen-1-yl)thiazol-2-amine]
[1]
  Block of activity regulated MeAIB transport, screen 2: ~ 50%
[1]; 15 min uptake
  IC50: 4.5 ± 0.45 µM
[5]
  logP: 4.05

## Nc1nc(-c2ccc3ccccc3c2)c(Br)s1 [SKA-220, 5-Bromo-4-(naphthalen-2-yl)thiazol-2-amine]
[1]
  Result of screen 2 (block of MeAIB transport): active
[5]
  logP: 4.42
